Reference: patent US9326506B2, “Preparation method, agricultural composition and applications of natural brassinolide analogs” (CHENGDU NEWSUN CROPSCIENCE CO., LTD, priority 2012, dated 2016)

System: rice
Assay: Low temperature assay on rice seedlings
Assay type: in vivo
Procedure: According to a low temperature assay, we measured parameters including plant height, number of leaf, area of leaf, number of tiller, weight of root at low temperature to completely determine effects of the natural brassinolide analogues on the resistance to low temperature of a plant.
The natural brassinolide analogues, BR1, BR2, BR3, BR4, BR5 and BR6, used herein, were those prepared by the method of Example 1. Respectively the analogues were dissolved into 95% (V/V) ethanol solution, and then diluted with pure water to 1 mg/L, 0.1 mg/L, 0.01 mg/L, 0.001 mg/L and 0.0001 mg/L. In addition, pure water was used as a control.
After rice seeds were disinfected by using 5% sodium hypochlorite solution treatment, they were rinsed with distilled water until their pH>7, placed into a petri dish in a dark incubator, and cultured by using water at 30° C.±2° C. for 9 days. Then respectively the nine-day-old etiolated seedlings of rice were immersed in the above solutions containing different concentrations of the natural brassinolide analogues or pure water, and cultured at the temperature of 1° C., 2° C., 3° C., 4° C. and 5° C. for 24 hr. The parameters including plant height, area of leaf and weight of root after 3, 6, 9 and 12 days and number of leaf and number of tiller after 12 days were measured.

CC(C)[C@H](C)[C@@H](O)[C@H](O)[C@@H](C)[C@H]1CCC2C3COC(=O)C4C[C@H](O)[C@H](O)C[C@]4(C)C3CC[C@@]21C (some centres unmarked) [BR1]
Height (0.01 mg/l, 3 °C, 9 days): 7.4 cm
Weight of root (0.01 mg/l, 3 °C, 9 days): 2.9 g
Area of leaf (0.01 mg/l, 3 °C, 12 days): 13.2 cm^2
Height (0.01 mg/l, 3 °C, 12 days): 7.6 cm
Number of leaf (0.01 mg/l, 3 °C, 12 days): 3
Number of tiller (0.01 mg/l, 3 °C, 12 days): 2
Weight of root (0.01 mg/l, 3 °C, 12 days): 2.9 g
Area of leaf (0.01 mg/l, 4 °C, 3 days): 10.8 cm^2
Height (0.01 mg/l, 4 °C, 3 days): 7.1 cm
Weight of root (0.01 mg/l, 4 °C, 3 days): 2.5 g
Area of leaf (0.01 mg/l, 4 °C, 6 days): 12.4 cm^2
Height (0.01 mg/l, 4 °C, 6 days): 7.3 cm
Weight of root (0.01 mg/l, 4 °C, 6 days): 2.6 g
Area of leaf (0.01 mg/l, 4 °C, 9 days): 13.4 cm^2
Height (0.01 mg/l, 4 °C, 9 days): 7.5 cm
Weight of root (0.01 mg/l, 4 °C, 9 days): 2.9 g
Area of leaf (0.01 mg/l, 4 °C, 12 days): 13.7 cm^2
Height (0.01 mg/l, 4 °C, 12 days): 7.8 cm
Number of leaf (0.01 mg/l, 4 °C, 12 days): 3
Number of tiller (0.01 mg/l, 4 °C, 12 days): 2
Weight of root (0.01 mg/l, 4 °C, 12 days): 3.0 g
Area of leaf (0.01 mg/l, 5 °C, 3 days): 10.9 cm^2
Height (0.01 mg/l, 5 °C, 3 days): 7.7 cm
Weight of root (0.01 mg/l, 5 °C, 3 days): 2.8 g
Area of leaf (0.01 mg/l, 5 °C, 6 days): 13.9 cm^2
Height (0.01 mg/l, 5 °C, 6 days): 7.8 cm
Weight of root (0.01 mg/l, 5 °C, 6 days): 3.0 g
Area of leaf (0.01 mg/l, 5 °C, 9 days): 17.4 cm^2
Height (0.01 mg/l, 5 °C, 9 days): 8.2 cm
Weight of root (0.01 mg/l, 5 °C, 9 days): 3.4 g
Area of leaf (0.01 mg/l, 5 °C, 12 days): 18 cm^2
Height (0.01 mg/l, 5 °C, 12 days): 8.5 cm
Number of leaf (0.01 mg/l, 5 °C, 12 days): 4
Number of tiller (0.01 mg/l, 5 °C, 12 days): 3
Weight of root (0.01 mg/l, 5 °C, 12 days): 3.9 g
Area of leaf (0.1 mg/l, 1 °C, 3 days): 10.1 cm^2
Height (0.1 mg/l, 1 °C, 3 days): 7.0 cm
Weight of root (0.1 mg/l, 1 °C, 3 days): 2.8 g
Area of leaf (0.1 mg/l, 1 °C, 6 days): 11.9 cm^2
Height (0.1 mg/l, 1 °C, 6 days): 7.2 cm
Weight of root (0.1 mg/l, 1 °C, 6 days): 3.0 g
Area of leaf (0.1 mg/l, 1 °C, 9 days): 12.9 cm^2
Height (0.1 mg/l, 1 °C, 9 days): 7.3 cm
Weight of root (0.1 mg/l, 1 °C, 9 days): 3.4 g
Area of leaf (0.1 mg/l, 1 °C, 12 days): 13.4 cm^2
Height (0.1 mg/l, 1 °C, 12 days): 7.5 cm
Number of leaf (0.1 mg/l, 1 °C, 12 days): 3
Number of tiller (0.1 mg/l, 1 °C, 12 days): 3
Weight of root (0.1 mg/l, 1 °C, 12 days): 3.6 g
Area of leaf (0.1 mg/l, 2 °C, 3 days): 10.4 cm^2
Height (0.1 mg/l, 2 °C, 3 days): 7.1 cm
Weight of root (0.1 mg/l, 2 °C, 3 days): 2.9 g
Area of leaf (0.1 mg/l, 2 °C, 6 days): 11.8 cm^2
Height (0.1 mg/l, 2 °C, 6 days): 7.2 cm
Weight of root (0.1 mg/l, 2 °C, 6 days): 3.0 g
Area of leaf (0.1 mg/l, 2 °C, 9 days): 12.8 cm^2
Height (0.1 mg/l, 2 °C, 9 days): 7.3 cm
Weight of root (0.1 mg/l, 2 °C, 9 days): 3.1 g
Area of leaf (0.1 mg/l, 2 °C, 12 days): 13.6 cm^2
Height (0.1 mg/l, 2 °C, 12 days): 7.4 cm
Number of leaf (0.1 mg/l, 2 °C, 12 days): 3
Number of tiller (0.1 mg/l, 2 °C, 12 days): 3
Weight of root (0.1 mg/l, 2 °C, 12 days): 3.2 g
Area of leaf (0.1 mg/l, 3 °C, 3 days): 10.5 cm^2
Height (0.1 mg/l, 3 °C, 3 days): 7.2 cm
Weight of root (0.1 mg/l, 3 °C, 3 days): 2.5 g
Area of leaf (0.1 mg/l, 3 °C, 6 days): 12 cm^2
Height (0.1 mg/l, 3 °C, 6 days): 7.3 cm
Weight of root (0.1 mg/l, 3 °C, 6 days): 2.6 g
Area of leaf (0.1 mg/l, 3 °C, 9 days): 12.8 cm^2
Height (0.1 mg/l, 3 °C, 9 days): 7.4 cm
Weight of root (0.1 mg/l, 3 °C, 9 days): 2.9 g
Area of leaf (0.1 mg/l, 3 °C, 12 days): 13.4 cm^2
Height (0.1 mg/l, 3 °C, 12 days): 7.6 cm
Number of leaf (0.1 mg/l, 3 °C, 12 days): 3
Number of tiller (0.1 mg/l, 3 °C, 12 days): 2
Weight of root (0.1 mg/l, 3 °C, 12 days): 2.9 g
Area of leaf (0.1 mg/l, 4 °C, 3 days): 10.8 cm^2
Height (0.1 mg/l, 4 °C, 3 days): 7.1 cm
Weight of root (0.1 mg/l, 4 °C, 3 days): 2.5 g
Area of leaf (0.1 mg/l, 4 °C, 6 days): 12.5 cm^2
Height (0.1 mg/l, 4 °C, 6 days): 7.4 cm
Weight of root (0.1 mg/l, 4 °C, 6 days): 2.7 g
Area of leaf (0.1 mg/l, 4 °C, 9 days): 13.5 cm^2
Height (0.1 mg/l, 4 °C, 9 days): 7.5 cm
Weight of root (0.1 mg/l, 4 °C, 9 days): 2.9 g
Area of leaf (0.1 mg/l, 4 °C, 12 days): 13.8 cm^2
Height (0.1 mg/l, 4 °C, 12 days): 7.7 cm
Number of leaf (0.1 mg/l, 4 °C, 12 days): 3
Number of tiller (0.1 mg/l, 4 °C, 12 days): 2
Weight of root (0.1 mg/l, 4 °C, 12 days): 3.1 g
Area of leaf (0.1 mg/l, 5 °C, 3 days): 11.1 cm^2
Height (0.1 mg/l, 5 °C, 3 days): 7.7 cm
Weight of root (0.1 mg/l, 5 °C, 3 days): 2.9 g
Area of leaf (0.1 mg/l, 5 °C, 6 days): 13.9 cm^2
Height (0.1 mg/l, 5 °C, 6 days): 7.9 cm
Weight of root (0.1 mg/l, 5 °C, 6 days): 3.2 g
Area of leaf (0.1 mg/l, 5 °C, 9 days): 17.8 cm^2
Height (0.1 mg/l, 5 °C, 9 days): 8.4 cm
Weight of root (0.1 mg/l, 5 °C, 9 days): 3.5 g
Area of leaf (0.1 mg/l, 5 °C, 12 days): 19 cm^2
Height (0.1 mg/l, 5 °C, 12 days): 8.7 cm
Number of leaf (0.1 mg/l, 5 °C, 12 days): 3
Number of tiller (0.1 mg/l, 5 °C, 12 days): 2
Weight of root (0.1 mg/l, 5 °C, 12 days): 4.1 g
Area of leaf (1 mg/l, 1 °C, 3 days): 10 cm^2
Height (1 mg/l, 1 °C, 3 days): 7.1 cm
Weight of root (1 mg/l, 1 °C, 3 days): 2.8 g
Area of leaf (1 mg/l, 1 °C, 6 days): 11.2 cm^2
Height (1 mg/l, 1 °C, 6 days): 7.2 cm
Weight of root (1 mg/l, 1 °C, 6 days): 3.1 g
Area of leaf (1 mg/l, 1 °C, 9 days): 12.4 cm^2
Height (1 mg/l, 1 °C, 9 days): 7.3 cm
Weight of root (1 mg/l, 1 °C, 9 days): 3.4 g
Area of leaf (1 mg/l, 1 °C, 12 days): 13 cm^2
Height (1 mg/l, 1 °C, 12 days): 7.4 cm
Number of leaf (1 mg/l, 1 °C, 12 days): 3
Number of tiller (1 mg/l, 1 °C, 12 days): 3
Weight of root (1 mg/l, 1 °C, 12 days): 3.9 g
Area of leaf (1 mg/l, 2 °C, 3 days): 10.2 cm^2
Height (1 mg/l, 2 °C, 3 days): 7.1 cm
Weight of root (1 mg/l, 2 °C, 3 days): 2.8 g
Area of leaf (1 mg/l, 2 °C, 6 days): 11.7 cm^2
Height (1 mg/l, 2 °C, 6 days): 7.2 cm
Weight of root (1 mg/l, 2 °C, 6 days): 3.0 g
Area of leaf (1 mg/l, 2 °C, 9 days): 12.6 cm^2
Height (1 mg/l, 2 °C, 9 days): 7.3 cm
Weight of root (1 mg/l, 2 °C, 9 days): 3.2 g
Area of leaf (1 mg/l, 2 °C, 12 days): 13 cm^2
Height (1 mg/l, 2 °C, 12 days): 7.5 cm
Number of leaf (1 mg/l, 2 °C, 12 days): 3
Number of tiller (1 mg/l, 2 °C, 12 days): 3
Weight of root (1 mg/l, 2 °C, 12 days): 3.9 g
Area of leaf (1 mg/l, 3 °C, 3 days): 10.4 cm^2
Height (1 mg/l, 3 °C, 3 days): 7.1 cm
Weight of root (1 mg/l, 3 °C, 3 days): 2.5 g
Area of leaf (1 mg/l, 3 °C, 6 days): 12 cm^2
Height (1 mg/l, 3 °C, 6 days): 7.2 cm
Weight of root (1 mg/l, 3 °C, 6 days): 2.6 g
Area of leaf (1 mg/l, 3 °C, 9 days): 12.6 cm^2
Height (1 mg/l, 3 °C, 9 days): 7.5 cm
Weight of root (1 mg/l, 3 °C, 9 days): 2.9 g
Area of leaf (1 mg/l, 3 °C, 12 days): 13.2 cm^2
Height (1 mg/l, 3 °C, 12 days): 7.6 cm
Number of leaf (1 mg/l, 3 °C, 12 days): 3
Number of tiller (1 mg/l, 3 °C, 12 days): 2
Weight of root (1 mg/l, 3 °C, 12 days): 2.9 g
Area of leaf (1 mg/l, 4 °C, 3 days): 10.9 cm^2
Height (1 mg/l, 4 °C, 3 days): 7.1 cm
Weight of root (1 mg/l, 4 °C, 3 days): 2.5 g
Area of leaf (1 mg/l, 4 °C, 6 days): 12.6 cm^2
Height (1 mg/l, 4 °C, 6 days): 7.5 cm
Weight of root (1 mg/l, 4 °C, 6 days): 2.7 g
Area of leaf (1 mg/l, 4 °C, 9 days): 13.7 cm^2
Height (1 mg/l, 4 °C, 9 days): 7.6 cm
Weight of root (1 mg/l, 4 °C, 9 days): 3.0 g
Area of leaf (1 mg/l, 4 °C, 12 days): 14 cm^2
Height (1 mg/l, 4 °C, 12 days): 7.7 cm
Number of leaf (1 mg/l, 4 °C, 12 days): 3
Number of tiller (1 mg/l, 4 °C, 12 days): 2
Weight of root (1 mg/l, 4 °C, 12 days): 3.2 g
Area of leaf (1 mg/l, 5 °C, 3 days): 11.1 cm^2
Height (1 mg/l, 5 °C, 3 days): 7.7 cm
Weight of root (1 mg/l, 5 °C, 3 days): 2.9 g
Area of leaf (1 mg/l, 5 °C, 6 days): 13.6 cm^2
Height (1 mg/l, 5 °C, 6 days): 8.0 cm
Weight of root (1 mg/l, 5 °C, 6 days): 3.5 g
Area of leaf (1 mg/l, 5 °C, 9 days): 18.4 cm^2
Height (1 mg/l, 5 °C, 9 days): 8.6 cm
Weight of root (1 mg/l, 5 °C, 9 days): 3.7 g
Area of leaf (1 mg/l, 5 °C, 12 days): 20 cm^2
Height (1 mg/l, 5 °C, 12 days): 8.9 cm
Number of leaf (1 mg/l, 5 °C, 12 days): 3
Number of tiller (1 mg/l, 5 °C, 12 days): 2
Weight of root (1 mg/l, 5 °C, 12 days): 4.5 g
Effects on resistance to low temperature compared among analogues (in vivo): more than those of BR2, BR3 and BR4
